From PubChem BioAssay AID179 (DTP/NCI, 2004)
The source made the active and inactive calls.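 Rule for the calls: active = compounds giving half or more protection of infected cells from virus-caused growth loss, again on retest; inactive = the rest.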

Tested on: CEM cells HIV-1 protection, formazan growth assay
Experiment: NCI AIDS Antiviral Assay
Settings: for IC50: measured here: growth of uninfected CEM cells
Outline: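 Soluble formazan readout of cell growth; CEM cells ± HIV-1; 5 drug concs. ≥50% protection → retest; ≥50% again = moderately active; reproducible 100% = confirmed active.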

Structure (SMILES)	outcome	EC50 [µM]	IC50 [µM]
OC/C=C/c1cccc(Cl)c1	inactive		
C/C(=N\NC(=S)NC1CCCC1)c1ccccn1		> 2	0.0151
COC(=O)/C(=N\NC(C)(C)C)C(C(=O)C(=O)Nc1cc(C)ccc1C)c1nc2ccccc2[nH]c1=O (centres undefined)	inactive		
CN1CCCNC(=S)C1	inactive		
CCC[CH2][Sn]1([CH2]CCC)[O]C(=O)c2ccc(C)cc2[O]1	inactive		
Cc1cc(C)c(SSc2nnnn2C)c(C)c1		> 200	19.5
CCCCCCCCCC/C=C/CC(=O)SCCNC(=O)CCNC(=O)[C@@H](O)C(C)(C)COP(=O)(O)OP(=O)(O)OCC1OC(n2cnc3c(N)ncnc32)C(O)C1OP(=O)(O)O (some centres undefined)	inactive		
COC1=C(C(=O)OC(C)(C)C)C2C(C(=O)OC(C)(C)C)C(OC)=C(C(=O)OC(C)(C)C)C2C1C(=O)OC(C)(C)C (centres undefined)		> 31.6	17
c1ccc(C2=NN(c3ccccc3)CC2)cc1	inactive		
O=C(NNC(=S)Nc1ccccc1)c1nsc2ccccc12		> 110	17.8
CCOc1ccc(N2C(=O)NC3(c4ccccc4)N(C)C(=O)N(C)C23c2ccccc2)cc1 (centres undefined)	inactive		
N#CCN1c2ccccc2CCC1Cl (centres undefined)		> 200	> 200
COc1ccccc1NC(=O)C(=O)C(C(=O)c1ccccc1F)C1OC(=O)c2ccccc21 (centres undefined)		> 288	20.9
Nc1c(C(=O)Nc2ccccc2)[n+]([O-])c2ccccc2[n+]1[O-]	inactive		
C=CC[C@]12C=C(OC)[C@@H](O)[C@](OC)(C(c3cc(OC)c4c(c3)OCO4)[C@H]1C)[C@H]2OC(C)=O (some centres undefined)		> 200	129
CCOC(=O)CN1CCC2CC1c1c([nH]c3ccccc13)C2c1cc2c(cc1OC)N(C)C1C(O)(C(=O)OC)C(OC(C)=O)C3(CC)C=CCN4CCC21C43 (centres undefined)		> 9.55	> 9.55
NC(=O)c1cn(Cc2ccccc2)c(=O)n1Cc1ccccc1		> 117	> 117
O=c1oc2ccc([N+](=O)[O-])cc2cc1-c1csc(-c2ccccc2)n1	inactive		
O=C(N/C(=C\c1ccc(Oc2ccc(Cl)c(Cl)c2)cc1)c1nc2ccccc2[nH]1)c1ccccc1	inactive		
O=S(=O)(SC(Cl)(Cl)Cl)c1cccc(S(=O)(=O)c2cccc(S(=O)(=O)SC(Cl)(Cl)Cl)c2)c1		> 200	> 200
CC1(CCc2ccccc2)CC1(Br)Br (centres undefined)		> 200	95.5

Structure (SMILES)	outcome	EC50 [µM]	IC50 [µM]
Cc1cccc(N2CCN(S(=O)(=O)c3ccc(Cl)cc3)C2=N)c1C		> 200	> 200
CC1CC(OP(=O)(OCc2ccccc2)OCc2ccccc2)[C@@H](OCc2ccccc2)C(OCc2ccccc2)C1OCc1ccccc1 (some centres undefined)		> 100	> 100
Nc1cc(F)c2cccnc2c1O		> 200	11.7
Clc1cc2nc(C3CCCCO3)[nH]c2cc1Cl (centres undefined)		> 200	10.2
CCNC(=O)C(O)C1(O)CCC2[C@@H]3CCC4=CC(=O)C=C[C@]4(C)C3[C@@H](O)C[C@@]21C (some centres undefined)	inactive		
CC(=O)OCC1OC(n2c(-c3ccc(C)cc3)cc(-c3ccccc3)c(C#N)c2=S)C(OC(C)=O)C(OC(C)=O)C1OC(C)=O (centres undefined)		> 200	67.6
COc1cc2c(cc1O)C=NCC2	inactive		
O=C(CCc1cc(-c2ccco2)n(-c2ccc([N+](=O)[O-])cc2[N+](=O)[O-])n1)Nc1ccccc1		> 41.7	> 41.7
O=C(/C=C/c1cccs1)c1ccc([N+](=O)[O-])cc1		> 200	
CCOC(=O)/C(C#N)=C/c1ccco1		> 263	> 263
CCOC(=O)c1cnc2c(ccc3[nH]cccc32)c1=O		> 26.9	> 26.9
CCCCCCCCCCCCCCCCCCOCC(COP(=O)(O)OCC1OC(n2cc(C)c(=O)[nH]c2=O)CC1N=[N+]=[N-])OC(=O)CCCCCCCCCCCCCCC (centres undefined)		> 50.1	> 50.1
CO/N=C(\C([O-])=N\[n+]1cnn(CC(=O)OC(C)(C)C)c1)c1csc(NC(c2ccccc2)(c2ccccc2)c2ccccc2)n1		> 200	37.2
CS(=O)(=O)NNS(=O)(=O)c1ccc(Br)cc1		> 398	> 398
O=S1(=O)CC2OC(c3ccccc3)OC2C1 (centres undefined)		> 537	> 537
CC(C)(C)SSC(=S)C(c1ccccc1)c1ccccc1		> 200	182
[Cl][Ni].[NH-]C(Cc1c[nH]cn1)C(=O)O (centres undefined)		> 100	> 100
CCOC(=O)c1nc2cc(C(F)(F)F)ccc2nc1Oc1ccc(F)cc1		> 200	186
O=C(CCC(=O)Nc1ccc(Cl)c(Cl)c1)CC(=O)c1ccc(F)cc1		> 67.6	> 67.6
COC(=O)[C@]1(C)CCCC2(C)C3=C(CCC21)CC1(CC3)SCCS1 (some centres undefined)		> 186	74.1
O=C1NC(=O)C(F)(n2cc(F)c(=O)[nH]c2=O)C(O)N1 (centres undefined)		> 200	55

Structure (SMILES)	outcome	EC50 [µM]	IC50 [µM]
CCCCOC(=O)/C(O)=C(\C=NC(=S)c1cccnc1)C(=O)C=C(C)C		> 200	41.7
O=C(O)Cc1ccc2c(c1)sc1nc(-c3ccc(Br)cc3)cn12		> 200	141
C=CC(C#CC#CCCCCCCC)O[Si](C)(C)C(C)(C)C (centres undefined)	inactive		
COc1ccc(NC(=S)NNC(=O)c2cc(-c3ccccc3)nc3ccccc23)cc1		> 200	35.5
COc1ccc(C2OC(=O)c3cc[nH]c(=O)c32)cc1 (centres undefined)		> 141	> 141
O=S(=O)(c1ccccc1)C(Br)c1ccccc1 (centres undefined)		> 158	> 158
CN(C)CCC(CCN(C)C)=NO		> 955	> 955
COC1OC(CS)C(N)C1OS(C)(=O)=O (centres undefined)		> 200	155
C/C(CC(=O)Nc1cc(C)ccc1C)=N\NC(=O)c1ccncc1		> 398	20.9
S=C(SSC(=S)C1CCCC1=NC1CCCCC1)C1CCCC1=NC1CCCCC1 (centres undefined)		> 200	151
Cn1c(=O)nc2n(CCO)ccnc-2c1=O		> 100	> 100
C(=C(Sc1ccccc1)Sc1ccccc1)C(Sc1ccccc1)c1ccccc1 (centres undefined)		> 200	> 200
CNc1ccc(Cl)cc1C(=O)N1CCC[C@H]1CO		> 200	> 200
SCCSCCCSCCS		> 22.9	> 22.9
N/C(=N\C(O)C(Cl)(Cl)Cl)SCNC(=O)NCS/C(N)=N/C(O)C(Cl)(Cl)Cl (centres undefined)		> 158	126
C=CCOc1cc2c(cc1C(C)c1ccc(OC)cc1)OCO2 (centres undefined)		> 32.4	0.708
O=C(O)C1COCN1C(=O)c1cc2ccccc2cc1SSc1cc2ccccc2cc1C(=O)N1COCC1C(=O)O (centres undefined)		> 200	93.3
COc1ccc(O[C@H](COCc2ccccc2)C[C@@H]2COC(C)(C)O2)cc1	inactive		
CN(CCc1ccc(Br)cc1)CCN1CCCCC1		> 123	57.5
CSc1nc(N)n(C(=O)c2ccc([N+](=O)[O-])cc2)n1		> 13.5	> 13.5
Cc1ccc(/C=N\NC(=O)c2ccncc2)s1		> 200	117

Structure (SMILES)	outcome	EC50 [µM]	IC50 [µM]
O=c1c2ccccc2[nH]c2c(O)ccc(O)c12	inactive		
OCCN1C(c2ccccc2)=CN2C=CSC21 (centres undefined)		> 200	29.5
O=C1/C(=C/c2ccc(O)cc2)Oc2cc(O)ccc21		> 204	66.1
O=c1c2cccnc2n2n1Cc1ccccc1C2		> 200	151
CC1=Nc2c(ccc3c2C(=O)c2ccccc2C3=O)NC(c2cccc3c2CCC3)C1 (centres undefined)		> 9.33	> 9.33
Cc1cc(N=C2C=C(Nc3cc(C)on3)C(=O)c3ccccc32)no1		> 11.2	> 11.2
CCC(NC1=NCCO1)c1cccs1 (centres undefined)		> 200	79.4
O=C(O)CNS(=O)(=O)c1ccc(NC(=O)c2ccccc2[N+](=O)[O-])cc1	inactive		
COc1cc(C[C@H]2C(=O)OC[C@@H]2C(=O)c2ccc(OC(C)C)c(O)c2)cc(OC)c1O		> 2	0.49
COC(=O)c1cccc2cccc(C(=O)N(C)CCN(C)C)c12		> 708	> 708
c1cc(CSSCc2ccncc2)ccn1		> 200	0.891
Cc1ccc(N2C(=O)C=C(C3=C(O)C(=O)N(c4ccc(C)cc4)C3=O)C2=O)cc1		135	> 200
CCCCCCCCc1cc2c(O)c(c1)Cc1cc(CCCCCCCC)cc(c1O)Cc1cc(CCCCCCCC)cc(c1O)Cc1cc(CCCCCCCC)cc(c1O)Cc1cc(CCCCCCCC)cc(c1O)Cc1cc(CCCCCCCC)cc(c1O)C2	inactive		
[N-]=[N+]=NC1=C(c2ccccn2)C(=O)c2cccc3cccc1c23		> 200	4.17
O=[N+]([O-])c1ccc(O)c(/C=N/NC(=S)N2CCCCC2)c1		> 200	2.95
CCC/C(=N\NC(=S)N1CCN(c2ccccn2)CC1)c1ccccn1		> 19.5	0.011
NC(=S)N/N=C(/CC(=O)c1ccccc1)C(=O)Nc1ccc(Cl)c(Cl)c1		> 87.1	> 87.1
CCCNCc1c2c(O)c3c(O)c(C)c4c(c3c1O)C(=O)C(C)(O/C=C/C(OC)C(C)C(OC(C)=O)C(C)C(O)C(C)C(O)C(C)/C=C/C=C(/C)C(=O)N2)O4 (centres undefined)		> 200	3.8
C/C(CC(=O)Nc1ccccc1[N+](=O)[O-])=N\NC(N)=O		> 468	> 468
CN(C)CNc1ncnc2onc(-c3ccccc3)c12	inactive		
O=C1c2ccccc2C(=O)c2cc(N=Nc3c(O)ccc4ccccc34)ccc21		> 100	> 100
